Data set [1] addresses T1, Peroxisome proliferator-activated receptor gamma (Homo sapiens, UniProt P37231).
T1 sequence (P37231 whole entry): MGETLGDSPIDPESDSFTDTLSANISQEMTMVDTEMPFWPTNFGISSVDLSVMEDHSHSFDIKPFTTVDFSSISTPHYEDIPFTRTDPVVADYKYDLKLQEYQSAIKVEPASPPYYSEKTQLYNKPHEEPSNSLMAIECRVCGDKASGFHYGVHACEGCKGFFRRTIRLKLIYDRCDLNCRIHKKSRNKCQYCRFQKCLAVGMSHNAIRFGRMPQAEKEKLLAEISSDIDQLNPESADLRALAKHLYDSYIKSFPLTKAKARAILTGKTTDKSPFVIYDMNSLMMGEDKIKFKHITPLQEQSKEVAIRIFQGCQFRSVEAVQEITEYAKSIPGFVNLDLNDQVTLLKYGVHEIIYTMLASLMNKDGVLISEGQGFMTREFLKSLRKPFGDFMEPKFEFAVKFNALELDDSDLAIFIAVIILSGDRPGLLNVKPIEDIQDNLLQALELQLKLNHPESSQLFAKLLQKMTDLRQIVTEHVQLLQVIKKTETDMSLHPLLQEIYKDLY
The data set is described as follows: Agonist activity at human PPARgamma expressed in CV-1 cells by reporter gene assay. The data set is classed as cell-based.

Data set [2] has as its target T2, Peroxisome proliferator-activated receptor gamma (Mus musculus) (UniProt P37238).
T2 sequence (whole entry): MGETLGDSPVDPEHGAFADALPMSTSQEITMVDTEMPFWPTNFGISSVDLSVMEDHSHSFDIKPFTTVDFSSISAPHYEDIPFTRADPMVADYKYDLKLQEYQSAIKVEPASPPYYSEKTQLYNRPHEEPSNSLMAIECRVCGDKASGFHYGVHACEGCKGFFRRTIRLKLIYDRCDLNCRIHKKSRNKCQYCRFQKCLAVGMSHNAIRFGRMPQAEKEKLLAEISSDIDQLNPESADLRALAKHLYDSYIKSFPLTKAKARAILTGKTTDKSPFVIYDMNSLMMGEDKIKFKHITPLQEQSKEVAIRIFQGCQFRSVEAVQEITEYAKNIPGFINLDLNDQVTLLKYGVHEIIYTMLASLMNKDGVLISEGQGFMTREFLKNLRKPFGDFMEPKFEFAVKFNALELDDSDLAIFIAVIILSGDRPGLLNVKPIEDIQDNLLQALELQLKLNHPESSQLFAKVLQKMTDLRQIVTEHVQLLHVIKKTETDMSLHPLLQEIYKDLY
The data set is described as follows: Agonist activity at mouse PPARgamma expressed in CV-1 cells by reporter gene assay relative to rosiglitazone. The data set is classed as cell-based.

The target of data set [3] is T3, Type-1 angiotensin II receptor (Homo sapiens, UniProt P30556).
T3 sequence (P30556 whole entry): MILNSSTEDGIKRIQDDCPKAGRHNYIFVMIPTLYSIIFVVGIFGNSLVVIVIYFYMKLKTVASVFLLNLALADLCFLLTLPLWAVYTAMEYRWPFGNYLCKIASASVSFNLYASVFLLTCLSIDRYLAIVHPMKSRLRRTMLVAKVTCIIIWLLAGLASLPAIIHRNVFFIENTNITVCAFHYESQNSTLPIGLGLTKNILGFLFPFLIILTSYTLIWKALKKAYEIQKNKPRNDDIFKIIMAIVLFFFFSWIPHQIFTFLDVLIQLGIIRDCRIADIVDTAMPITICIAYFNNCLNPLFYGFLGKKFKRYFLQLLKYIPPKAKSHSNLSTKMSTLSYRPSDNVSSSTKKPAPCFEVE
The data set is described as follows: Antagonist activity at human AT1 receptor expressed in CHO cells measured after overnight incubation by luciferase reporter gene assay. The data set is classed as cell-based.

The target in data set [4] is T4, Peroxisome proliferator-activated receptor delta (Mus musculus, UniProt P35396).
T4 sequence (P35396 whole entry): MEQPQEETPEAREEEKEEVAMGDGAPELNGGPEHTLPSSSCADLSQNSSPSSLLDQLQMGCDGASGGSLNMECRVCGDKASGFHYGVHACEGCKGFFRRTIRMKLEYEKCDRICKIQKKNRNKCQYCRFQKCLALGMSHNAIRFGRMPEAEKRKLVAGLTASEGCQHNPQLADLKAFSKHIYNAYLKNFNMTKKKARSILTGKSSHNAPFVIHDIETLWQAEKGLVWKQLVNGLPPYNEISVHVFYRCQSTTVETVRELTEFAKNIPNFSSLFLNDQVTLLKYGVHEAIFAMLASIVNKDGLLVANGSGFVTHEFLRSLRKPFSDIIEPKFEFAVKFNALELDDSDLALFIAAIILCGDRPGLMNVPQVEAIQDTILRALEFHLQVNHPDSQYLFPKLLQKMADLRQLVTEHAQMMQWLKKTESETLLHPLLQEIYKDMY
Briefly: Agonist activity at mouse PPARdelta expressed in CV-1 cells by reporter gene assay. It counts as cell-based.

The target in data set [5] is T5, Peroxisome proliferator-activated receptor gamma (Mus musculus, UniProt P37238).
T5 sequence (P37238 whole entry): T2 sequence (whole entry)
The data set is described as follows: Agonist activity at mouse PPARgamma expressed in CV-1 cells by reporter gene assay. The data set is classed as cell-based.

In data set [6] the target is T6, Peroxisome proliferator-activated receptor alpha (Mus musculus, UniProt P23204).
T6 sequence (P23204 whole entry): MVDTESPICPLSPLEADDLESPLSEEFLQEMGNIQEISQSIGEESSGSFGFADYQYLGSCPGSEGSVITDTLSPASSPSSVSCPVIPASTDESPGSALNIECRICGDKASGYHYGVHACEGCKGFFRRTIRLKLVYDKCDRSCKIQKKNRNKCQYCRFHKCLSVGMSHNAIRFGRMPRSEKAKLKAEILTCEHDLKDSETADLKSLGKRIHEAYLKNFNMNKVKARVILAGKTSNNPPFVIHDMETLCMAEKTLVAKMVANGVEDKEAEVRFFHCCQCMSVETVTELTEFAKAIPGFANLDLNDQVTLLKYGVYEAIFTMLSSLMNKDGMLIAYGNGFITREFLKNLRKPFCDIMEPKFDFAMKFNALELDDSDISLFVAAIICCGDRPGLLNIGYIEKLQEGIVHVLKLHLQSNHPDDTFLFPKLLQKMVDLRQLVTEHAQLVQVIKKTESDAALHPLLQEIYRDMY
Briefly: Agonist activity at mouse PPARalpha expressed in CV-1 cells by reporter gene assay. It counts as cell-based. In general terms: In a reporter assay the amount or activity of a reporter protein is the signal.

For data set [7], the target named is T7, Peroxisome proliferator-activated receptor alpha (Mus musculus) (UniProt P23204).
T7 sequence (whole entry): T6 sequence (P23204 whole entry)
Briefly: Agonist activity at mouse PPARalpha expressed in CV-1 cells by reporter gene assay relative to rosiglitazone.

In data set [8] the test system is Rattus norvegicus. The data set is described as follows: Reduction in free fatty acid level in Zucker fa/fa rat plasma at 1 mg/kg, po qd for 5 days relative to vehicle-treated control control. It counts as functional, organism-based. Set-up: dose 1 mg/kg.
Data set [9] has as its system Rattus norvegicus. The data set is described as follows: Toxicity in Zucker fa/fa rat assessed as increase in body weight gain at 1 mg/kg, po qd for 5 days relative to vehicle-treated control control. It counts as organism-based. Set-up: dose 1 mg/kg, route oral. The conditions noted are these: in vivo, 120 h.
Data set [10] has as its system Rattus norvegicus. Briefly: Reduction in triglyceride level in Zucker fa/fa rat plasma at 1 mg/kg, po qd for 5 days relative to vehicle-treated control control. It counts as functional, organism-based. Also on record: dose 1 mg/kg.
Data set [11] concerns Rattus norvegicus. Briefly: Toxicity in Zucker fa/fa rat assessed as increase in body weight gain at 75 mg/kg, po qd for 5 days relative to vehicle-treated control control. The data set is classed as organism-based. Set-up: dose 75 mg/kg, route oral. The conditions noted are these: in vivo, 120 h.
In data set [12] the test system is Rattus norvegicus. The data set is described as follows: Reduction in insulin level in Zucker fa/fa rat plasma at 1 mg/kg, po qd for 5 days relative to vehicle-treated control control. Also on record: dose 1 mg/kg. The data set is classed as functional, organism-based.
Data set [13] deals with T1, Peroxisome proliferator-activated receptor gamma. The data set is described as follows: Partial agonist activity at human PPARgamma expressed in CV-1 cells by reporter gene assay. The data set is classed as cell-based.
Data set [14] has as its target T8, Peroxisome proliferator-activated receptor gamma (Homo sapiens) (UniProt P37231).
T8 sequence (whole entry): T1 sequence (P37231 whole entry)
Briefly: Partial agonist activity at human PPARgamma expressed in CV-1 cells by reporter gene assay relative to rosiglitazone. It counts as cell-based.

For data set [15], the target named is T2, Peroxisome proliferator-activated receptor gamma (Mus musculus). Briefly: Partial agonist activity at mouse PPARgamma expressed in CV-1 cells by reporter gene assay relative to rosiglitazone. The data set is classed as cell-based.
The target in data set [16] is T5, Peroxisome proliferator-activated receptor gamma. The data set is described as follows: Partial agonist activity at mouse PPARgamma expressed in CV-1 cells by reporter gene assay. It counts as cell-based.

Active and inactive are the calls of the source. The rule behind the calls is not given here.

The values below come from ChEMBL document CHEMBL3112505, “Discovery of novel indazole derivatives as dual angiotensin II antagonists and partial PPARγ agonists” (Bioorg Med Chem Lett, 2014).

The term EC50 denotes the concentration needed to bring the measured effect to its halfway point. The low end stands for a more potent agent, the high end for a less potent agent. As a reminder, the IC50 is the concentration needed to halve the response being measured.

Consider `CCCc1nn2ccc(-c3nc4ccccc4n3CCC)cc2c1Cc1ccc(-c2ccccc2C(=O)O)cc1`, for which the EC50 was 280 nM in data set [1], greater than 10000 nM in data set [4], 380 nM in [5] and greater than 10000 nM in data set [6]. In addition, in data set [2], the max activation turned out to be 27%. In data set [3], the IC50 amounted to 85 nM.

In [3], `CCCc1nc2ccc(C(=O)NC(CC)c3ccccc3)cc2n1Cc1ccc(-c2ccccc2C(=O)O)cc1` (centres undefined) displayed an IC50 of 288 nM.

Turning to `CCCc1c(Cc2ccc(-c3ccccc3C(=O)O)cc2)c2cc(C(=O)NC(CC)c3ccccc3)ccc2n1OC` (centres undefined), the EC50 was 90 nM in [1], greater than 10000 nM in [4], 200 nM in [5] and greater than 10000 nM in data set [6]. This compound also yielded a max activation in data set [2] of 17%. Besides, in data set [3], the IC50 was greater than 10000 nM.

`CCCc1nn2ccc(C(=O)NC(CC)c3ccccc3)cc2c1Cc1ccc(-c2ccccc2-c2nn[nH]n2)cc1` (centres undefined) displayed a max activation in data set [2] of 9%.

For `CCCc1nc2cc(C(=O)NC(CC)c3ccccc3)ccc2n1Cc1ccc(-c2ccccc2C(=O)O)cc1` (centres undefined), a half-maximal effect in data set [1] (EC50) was put at 2650 nM. Moreover, the IC50 in data set [3] came to 128 nM.

With `CCCc1c(Cc2ccc(-c3ccccc3C(=O)O)cc2)c2ccc(C(=O)NC(CC)c3ccccc3)cc2n1C` (centres undefined), the EC50 in [1] was found to be 2 nM; in data set [5], 3 nM; in data set [6], 170 nM. The max activation in data set [2] is 42%; in data set [7], 90%. In data set [3], this compound had an IC50 greater than 10000 nM.

As for `CCCc1nn2ccc(-c3nc4ccccc4n3CCC)cc2c1Cc1ccc(-c2ccccc2-c2nn[nH]n2)cc1`, the max activation in [2] is 60%.

In [3], `CCC(NC(=O)c1ccc2c(c1)c(C)c(C)n2Cc1ccc(-c2ccccc2C(=O)O)cc1)c1ccccc1` (centres undefined) gave an IC50 greater than 10000 nM.

Take `CCCc1nn2ccc(C(=O)NC(CC)c3ccccc3)cc2c1Cc1ccc(-c2ccccc2C(=O)O)cc1` (centres undefined): the EC50 is 390 nM in [1], greater than 10000 nM in data set [4], 1020 nM in data set [5] and greater than 10000 nM in data set [6]. Further, the max activation in [2] amounted to 32%. This compound yielded an IC50 in [3] of 1690 nM.

Take `CCCc1[nH]c2cc(C(=O)NC(CC)c3ccccc3)ccc2c1Cc1ccc(-c2ccccc2C(=O)O)cc1` (centres undefined): the EC50 in data set [1] came to 6 nM; in [5], 9 nM; in data set [6], 790 nM. Moreover, the figures for the max activation in data set [2] and in data set [7] were 36% and 71%, respectively. The same compound showed an IC50 in data set [3] greater than 10000 nM.

Regarding `CN(CCOc1ccc(C[C@H](Nc2ccccc2C(=O)c2ccccc2)C(=O)O)cc1)c1ccccn1`, the result in the data set with Rattus norvegicus [8], with Rattus norvegicus [10] and in the data set on Rattus norvegicus [12] was Active. The Activity result was “Toxic” with Rattus norvegicus [9] and “Non-toxic” with Rattus norvegicus [11].

For `CCCc1[nH]c2ccc(C(=O)NC(CC)c3ccccc3)cc2c1Cc1ccc(-c2ccccc2C(=O)O)cc1` (centres undefined), the EC50 in data set [1] is 350 nM; in data set [5] it was 510 nM; in data set [6] it was greater than 10000 nM. This compound had a max activation in data set [2] of 24%. The compound also gave an IC50 in [3] greater than 10000 nM.

Regarding `CCCCn1c(-c2ccc3nn(CCC)c(Cc4ccc(-c5ccccc5C(=O)O)cc4)c3c2)nc2ccccc21`, the EC50 in data set [1] is 640 nM; in [4], greater than 10000 nM; in [5], 1390 nM; in data set [6] it was greater than 10000 nM. The compound also registered a max activation in data set [2] of 37%. The IC50 in data set [3] came to 60 nM.

With `CCCc1nn2ccc(-c3nc4ccccc4n3CCC)cc2c1Cc1ccc(-c2ccccc2-c2nnn[nH]2)cc1`, the EC50 in data set [1] was 80 nM; in data set [4], greater than 10000 nM; in data set [5], 130 nM; in [6], greater than 10000 nM. For the same compound, the IC50 in data set [3] was determined as 23 nM.

On to `CCCn1nc2ccc(C(=O)NC(CC)c3ccccc3)cc2c1Cc1ccc(-c2ccccc2C(=O)O)cc1` (centres undefined), for which the IC50 in data set [3] stood at 1000 nM. Besides, the EC50 was 130 nM in [13], greater than 10000 nM in data set [4], 250 nM in data set [16] and greater than 10000 nM in data set [6]. Further, the max activation in data set [14] worked out at 24%; in data set [15], 19%.
